Source: ChEMBL document CHEMBL3351858, “Opioids and efflux transporters. Part 4: influence of N-substitution on P-glycoprotein substrate activity of noroxymorphone analogues” (Bioorg Med Chem Lett, 2014)
The source made the active and inactive calls. The calls are words filed in the database; no cut-off is given here.

Species on record: Homo sapiens
Assay: Activity at human P-glycoprotein assessed as ATPase activity using firefly luciferase at 200 uM by Pgp-Glo assay in presence of MgATP

O=C1CC[C@@]2(O)[C@H]3Cc4ccc(O)c5c4[C@@]2(CCN3CCCc2ccccc2)[C@H]1O5
Activity: Active

O=C1CC[C@@]2(O)[C@H]3Cc4ccc(O)c5c4[C@@]2(CCN3CCc2ccccc2)[C@H]1O5
Activity: Active

O=C1CC[C@@]2(O)[C@H]3Cc4ccc(O)c5c4[C@@]2(CCN3Cc2ccccc2)[C@H]1O5
Activity: Active

C=CCN1CC[C@]23c4c5ccc(O)c4O[C@H]2C(=O)CC[C@@]3(O)[C@H]1C5
Activity: inactive

C/C=C/CN1CC[C@]23c4c5ccc(O)c4O[C@H]2C(=O)CC[C@@]3(O)[C@H]1C5
Activity: Active

CN1CC[C@]23c4c5ccc(O)c4O[C@H]2C(=O)CC[C@@]3(O)[C@H]1C5
Activity: inactive

C=C(C)CN1CC[C@]23c4c5ccc(O)c4O[C@H]2C(=O)CC[C@@]3(O)[C@H]1C5
Activity: Active

O=C1CC[C@@]2(O)[C@H]3Cc4ccc(O)c5c4[C@@]2(CCN3CC2CC2)[C@H]1O5
Activity: inactive

CC(C)=CCN1CC[C@]23c4c5ccc(O)c4O[C@H]2C(=O)CC[C@@]3(O)[C@H]1C5
Activity: inactive
